This note sets out measurements from patent US20130005568A1, “SAFENED HERBICIDAL MIXTURES” (E.I. DU PONT DE NEMOURS AND COMPANY, priority 2011, published 2013).

The subject of data set [1] is Pioneer 39K40 hybrid maize. Kind of data set: Test A: visual plant response rating, postemergence herbicide treatments alone and with Compound 1. Type of data set: in vivo, Zea mays L. spp. indentata Sturt. To be noted: in vivo. How it is done: (§1) For all of the following biological tests, plant response ratings were based on a 0-100 scale where zero is growth equivalent to that of untreated plants (no plant response) and 100 represents no additional growth occurring after herbicide treatment.
Pioneer 39K40 hybrid maize used in this test (and also Tests B and C) is particularly sensitive to herbicides that inhibit the acetohydroxy acid synthase enzyme. Herbicide mixtures were dissolved/dispersed in a non-phytotoxic liquid carrier and were sprayed postemergence to Pioneer 39K40 hybrid maize (Zea mays L. spp. indentata Sturt.) in the third collar growth stage (extended leaf height was 50-60 cm). Treated plants were grown under greenhouse conditions for two weeks before visual evaluations of plant responses were recorded.

The subject of data set [2] is Pioneer 39K40 hybrid maize. Kind of data set: Test B: visual plant response rating, postemergence herbicides with Compound 1 rate series. To be noted: in vivo. Type of data set: in vivo, Zea mays L. spp. indentata Sturt. Here is the method: as §1
Herbicide mixtures were dissolved/dispersed in a non-phytotoxic liquid carrier and were sprayed postemergence to Pioneer 39K40 hybrid maize (Zea mays L. spp. indentata Sturt.) in the third collar growth stage (extended leaf height was 50-60 cm). Treated plants were grown under greenhouse conditions for two weeks before visual evaluations of plant responses were recorded.

The subject of the next data set is lambsquarters. Kind of data set: Test I: postemergence plant response rating. Type of data set: in vivo, Chenopodium album L. To be noted: lambsquarters, postemergence, greenhouse, two weeks, 0-100 scale.
Excerpt: as §1
(§2) Herbicide mixtures were formulated, dissolved/dispersed in water containing 0.25% non-ionic surfactant, and sprayed postemergence to the crop: soybean (Glycine max (L.) Merr.) at the 2-leaf growth stage and to weeds: lambsquarters (Chenopodium album L.) and velvetleaf (Abutilon theophrasti Medik.). Weed species were 5-10 cm tall when treated. Treated plants were grown under greenhouse conditions for two weeks before visual evaluations of plant responses were recorded.

A further data set has as its system velvetleaf. Kind of data set: Test I: postemergence plant response rating. Type of data set: in vivo, Abutilon theophrasti Medik. Particulars: velvetleaf, postemergence, greenhouse, two weeks, 0-100 scale.
Excerpt: as §1, §2

For data set [3], the system named is sunflower variety Pioneer 63N82 bred for resistance to tribenuron-methyl. Briefly: Test H: tribenuron-tolerant sunflower postemergence plant response rating. Type of data set: in vivo, Helianthus annuus L. var. Pioneer 63N82. Particulars: 2-leaf stage, greenhouse, two weeks, 0-100 scale.
Excerpt: as §1
Herbicide mixtures were formulated, dissolved/dispersed in water containing 0.25% non-ionic surfactant, and sprayed postemergence at the 2-leaf growth stage to a sunflower variety (Helianthus annuus L. var. Pioneer 63N82) bred for resistance to tribenuron-methyl. Treated plants were grown under greenhouse conditions for two weeks before visual evaluations of plant responses were recorded.

For data set [4], the system named is Pioneer 39K40 hybrid maize. Briefly: Test C: visual plant response rating, postemergence acetohydroxy acid synthase-inhibiting herbicides alone and with Compound 1. Type of data set: in vivo, Zea mays L. spp. indentata Sturt. Particulars: greenhouse, two weeks, 0-100 scale. Here is the method: as §1
Herbicide mixtures were dissolved/dispersed in a non-phytotoxic liquid carrier and were sprayed postemergence to Pioneer 39K40 hybrid maize (Zea mays L. spp. indentata Sturt.) in the third collar growth stage (extended leaf height was 40-60 cm). Treated plants were grown under greenhouse conditions for two weeks before visual evaluations of plant responses were recorded.

The next data set has as its system sugarcane. Briefly: Test J: sugarcane postemergence plant response rating, field conditions. The data set is classed as in vivo, Saccharum officinarum L. To be noted: postemergence, field, four weeks, 0-100 scale. Here is the method: as §1
Herbicide mixtures were formulated, dissolved/dispersed in water containing 0.25% non-ionic surfactant, and sprayed postemergence to sugarcane (Saccharum officinarum L.) approximately 20-40 cm tall (extended leaf height). This test was conducted under field conditions. Visual evaluations of plant responses were recorded four weeks after the plants were treated.

In a further data set the test system is Alexandergrass. Briefly: Test K: pasture grass postemergence plant response rating, field conditions. Type of data set: in vivo, Brachiaria plantaginea (Link) A. S. Hitchc. To be noted: Alexandergrass, postemergence, field, four weeks, 0-100 scale.
Excerpt: as §1
(§3) Herbicide mixtures were formulated, dissolved/dispersed in water containing 0.25% non-ionic surfactant, and sprayed postemergence to the pasture grasses: Surinam grass (Brachiaria decumbens Stapf), palisade grass (Brachiaria brizantha (Hochst. ex A. Rich) Stapf) and Alexandergrass (Brachiaria plantaginea (Link) A. S. Hitchc.) approximately 10-30 cm tall (extended leaf height). This test was conducted under field conditions. Visual evaluations of plant responses were recorded four weeks after the plants were treated.

A further data set concerns Surinam grass. The data set is described as above. The data set is classed as in vivo, Brachiaria decumbens Stapf. Particulars: Surinam grass, postemergence, field, four weeks, 0-100 scale.
Excerpt: as §1, §3

Another data set concerns palisade grass. Described as above. The data set is classed as in vivo, Brachiaria brizantha (Hochst. ex A. Rich) Stapf. To be noted: Palisade grass, postemergence, field, four weeks, 0-100 scale.
Excerpt: as §1, §3

Where [5] appears, read: herbicide 4 g ai/ha + Compound 1 125 g ai/ha.
Where [6] appears, read: herbicide 8 g ai/ha + Compound 1 125 g ai/ha.
[7] abbreviates: herbicide 30 g ai/ha + Compound 1 70 g ai/ha.
[8] abbreviates: herbicide 30 g ai/ha + Compound 1 140 g ai/ha.

As to `CCS(=O)(=O)c1cccnc1S(=O)(=O)NC(=O)Nc1nc(OC)cc(OC)n1` [Rimsulfuron, rimsulfuron], the results for the “Observed Response, Herbicide alone” value in [1] and in [2] were 92 and 62, respectively.
For the compound `COC(=O)c1sccc1S(=O)(=O)NC(=O)Nc1nc(C)nc(OC)n1` [Thifensulfuron-methyl, thifensulfuron-methyl], the “Observed Response, Herbicide mixture with Compound 1” value (shortened to “Observed Response, Herbicide mixture”) in the data set with lambsquarters (setting [5]) was 99; in the data set on lambsquarters (setting [6]) it was 100; with velvetleaf (setting [5]) it was 99; with velvetleaf (setting [6]), 100. Further, the “Observed Response, Herbicide alone” value in the data set with lambsquarters (herbicide 4 g ai/ha) is recorded as 98; in the data set with lambsquarters (herbicide 8 g ai/ha) it was 100; in data set [1], 73; in data set [2], 45; in the data set with velvetleaf (herbicide 4 g ai/ha), 99; with velvetleaf (herbicide 8 g ai/ha), 100.
As to `COC(=O)c1ccccc1S(=O)(=O)NC(=O)Nc1nc(C)cc(C)n1` [Sulfometuron-methyl, sulfometuron-methyl], the “Observed Response, Herbicide mixture” value in data set [3] (setting [5]) stood at 7; in data set [3] (setting [6]), 3; in [3] (herbicide 16 g ai/ha + Compound 1 125 g ai/ha), 3; in data set [3] (herbicide 31 g ai/ha + Compound 1 125 g ai/ha) it was 7; in data set [3] (herbicide 62 g ai/ha + Compound 1 125 g ai/ha) it was 7; in data set [4] (setting [6]) it was 100. Moreover, the “Observed Response, Herbicide mixture” value in the data set with sugarcane (setting [7]) is 45; with sugarcane (setting [8]), 30; in the data set with Alexandergrass (setting [7]), 45; with Alexandergrass (setting [8]) it was 30; with Surinam grass (setting [7]), 45; with Surinam grass (setting [8]) it was 30. Moreover, the figures for the “Observed Response, Herbicide mixture” value in the data set with palisade grass (setting [7]) and in the data set with palisade grass (setting [8]) were 40 and 20, respectively. Further, the “Observed Response, Herbicide alone” value is 27 in data set [3] (herbicide 4 g ai/ha); 30 in [3] (herbicide 8 g ai/ha); 33 in [3] (herbicide 16 g ai/ha); 37 in data set [3] (herbicide 31 g ai/ha); 40 in data set [3] (herbicide 62 g ai/ha); 100 in [4] (herbicide 8 g ai/ha). Moreover, the “Observed Response, Herbicide alone” value with sugarcane (herbicide 30 g ai/ha) was 60; with Alexandergrass (herbicide 30 g ai/ha), 50; in the data set on Surinam grass (herbicide 30 g ai/ha), 50; in the data set on palisade grass (herbicide 30 g ai/ha), 45.
